Publication PMC8609999, “A Phase I trial of talazoparib in patients with advanced hematologic malignancies” (International Journal of Hematologic Oncology, 2021)
Where two headings read alike, the source gives them in different places. Marks after values point to notes of the source that are not given here.

Experiments:
[1] = tested on: patients with advanced hematologic malignancies (cohort 1: AML/MDS; cohort 2: CLL/MCL); type: in vivo, human
Source text: AEs were coded in accordance with The Medical Dictionary for Regulatory Activities, version 16.1. Treatment-emergent AEs (TEAEs) were defined as AEs that were new, increased in frequency, or worsened in severity, after the first talazoparib dose. AEs counted as drug-related had been classified by investigators as possibly or probably related to talazoparib.
All analyses in this open-label, dose-finding study were descriptive in nature. Descriptive summaries of continuous variables, including the mean, standard deviation (SD), median, range, and, where appropriate, 95% CI and/or interquartile range, were determined using the Statistical Analysis Software (SAS), version 9.2. Descriptive summaries of categorical variables included the number of patients and percentages. Data were summarized with respect to the dose level at which the patients started treatment. Cohorts were defined as all patients who began treatment at a given dose level.

[2] = Urine pharmacokinetics after multiple daily talazoparib dosing; type: in vivo, human
Description: Plasma and urine samples were assayed for talazoparib concentrations by Covance Laboratories Inc., using validated high performance liquid chromatography with tandem mass spectrometry detection methods. The lower limits of quantitation for […] and urine were 5.0 pg/ml and 25.0 pg/ml, respectively. Evaluated PK parameters included maximum concentration (Cmax), minimum concentration (Cmin), time to maximum plasma concentration (Tmax), area under the curve from time 0 to last measurable concentration (AUC0–t), area under the curve from time 0 to 24 h post-dose (AUC0–24), amount of drug excreted into the urine from time 0 to 24 h (Ae0–24), fraction of administered drug excreted in the urine from time 0 to 24 h (Fe0–24), and average renal clearance from time 0 to 24 h (ARC0–24); ARC0–24 was calculated as (Ae0–24/AUC0–24). PK parameters were calculated using Phoenix™ WinNonlin® 6.1.
Summary statistics for plasma and urine talazoparib concentrations and PK parameters were calculated by grouping subjects in cohorts 1 and 2 together to provide a larger sample size at each dose level.

[3] = 1.35 mg/day, multiple daily dosing, urine, n = 2, geometric mean (geometric CV%)

## Cn1ncnc1[C@H]1c2n[nH]c(=O)c3cc(F)cc(c23)N[C@@H]1c1ccc(F)cc1 [talazoparib]
[1]; Cohort 1, 0.10 mg/day (n = 3)
  Any AEs of CTCAE Grade of 5 (death): 0 (0.0) n (%)
  Any study drug-related AEs of CTCAE Grade 5 (death): 0 (0.0) n (%)
[1]; Cohort 1, 0.20 mg/day (n = 3)
  Any AEs of CTCAE Grade of 5 (death): 2 (66.7) n (%)
  Any study drug-related AEs of CTCAE Grade 5 (death): 0 (0.0) n (%)
[1]; Cohort 1, 0.30 mg/day (n = 5)
  Any AEs of CTCAE Grade of 5 (death): 1 (20.0) n (%)
  Any study drug-related AEs of CTCAE Grade 5 (death): 0 (0.0) n (%)
[1]; Cohort 1, 0.45 mg/day (n = 3)
  Any AEs of CTCAE Grade of 5 (death): 2 (66.7) n (%)
  Any study drug-related AEs of CTCAE Grade 5 (death): 0 (0.0) n (%)
[1]; Cohort 1, 0.90 mg/day (n = 4)
  Any AEs of CTCAE Grade of 5 (death): 3 (75.0) n (%)
  Any study drug-related AEs of CTCAE Grade 5 (death): 0 (0.0) n (%)
[1]; Cohort 1, 1.35 mg/day (n = 3)
  Any AEs: 3 (100) n (%)
  Any AEs leading to dose interruption or modification: 0 (0.0) n (%)
  Any AEs leading to study drug withdrawn: 0 (0.0) n (%)
  Any AEs of CTCAE Grade 3 or 4: 3 (100) n (%)
  Any AEs of CTCAE Grade of 5 (death): 1 (33.3) n (%)
  Any SAEs: 2 (66.7) n (%)
  Any SAEs of CTCAE Grade of 3 or 4: 2 (66.7) n (%)
  Any study drug-related AEs: 3 (100) n (%)
  Any study drug-related AEs leading to dose interruption or modification: 0 (0.0) n (%)
  Any study drug-related AEs leading to study drug withdrawal: 0 (0.0) n (%)
  Any study drug-related AEs of CTCAE Grade 5 (death): 0 (0.0) n (%)
  Any study drug-related AEs of CTCAE Grade of 3 or 4: 2 (66.7) n (%)
  Any study drug-related SAEs: 0 (0.0) n (%)
[1]; Cohort 1, 2.00 mg/day (n = 4)
  Any AEs of CTCAE Grade of 5 (death): 3 (75.0) n (%)
  Any study drug-related AEs of CTCAE Grade 5 (death): 1 (25.0)^§ n (%)
[1]; Cohort 1, All (n = 25)
  Any AEs of CTCAE Grade of 5 (death): 12 (48.0) n (%)
  Any study drug-related AEs of CTCAE Grade 5 (death): 1 (4.0)^§ n (%)
[1]; Cohort 2, 0.10 mg/day (n = 3)
  Any AEs of CTCAE Grade of 5 (death): 1 (33.3) n (%)
  Any study drug-related AEs of CTCAE Grade 5 (death): 0 (0.0) n (%)
[1]; Cohort 2, 0.90 mg/day (n = 5)
  Any AEs of CTCAE Grade of 5 (death): 0 (0.0) n (%)
  Any study drug-related AEs of CTCAE Grade 5 (death): 0 (0.0) n (%)
[1]; Cohort 2, All (n = 8)
  Any AEs of CTCAE Grade of 5 (death): 1 (12.5) n (%)
  Any study drug-related AEs of CTCAE Grade 5 (death): 0 (0.0) n (%)
[1]; both cohorts, N = 33, during study or within 30 days after last dose
  Deaths: 39.4%
[1]; human, in vivo
  Patients with Grade 3/4 TEAEs: 84.8%
  Patients with TEAEs leading to dose interruption/reduction related to study drug: 30.3%
  Patients with a Grade 3/4 SAE: 51.5%
  Patients with a drug-related SAE: 9.1%
  Patients with at least one TEAE leading to dose interruption and/or reduction: 45.5%
  Patients with drug-related Grade 3/4 TEAEs: 42.4%
  Patients with drug-related TEAEs (possibly or probably related): 69.7%
  Patients with serious AEs (SAEs): 75.8%
[1]; n = 33, All grades (Grade 1–4 only)
  TEAE: Fatigue: 13 (39.4) n (%)
[2]; [3]
  Ae0–24: 0.531 (29.8) mg
  Fe0–24 (fraction of administered drug excreted in urine): 0.393 (29.8)
[2]; human, in vivo
  Major clearance pathway: urinary elimination is the major clearance pathway
